Assays:
HCT116 cells = assay: Effect of inhibiting cancer cell proliferation (MTT) in HCT116 cells; type: cell-based, human; settings: for inhibition at 100 µM: read-out: Cell growth inhibition (%) at 100 μM; for inhibition at 25 µM: read-out: Cell growth inhibition (%) at 25 μM
Outline: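 HCT116 colorectal cells (about 5,000 per well, DMEM with 10% FBS) treated with 100, 25, 6.25, 1.56 or 0.39 μM compound for 48 h. MTT added for 3 h, formazan read at 560 nm; GIC50 taken from viability relative to untreated cells.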

AMPK = AMPK activation effect (AMPK [pT172] ELISA) in MCF7 cells; type: cell-based, human; settings: 24 hours; for AMPK activation effect (%) 10 μM / AMPK activation effect (%) 50 μM / AMPK activation effect (%) 5 μM: AMPKα Thr172 phosphorylation relative to untreated cells; for AC150: concentration at which AMPK activation reached 150%
Outline: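 MCF7 cells in DMEM/10% FBS were treated 24 h with compounds at 5, 10 and 50 uM. Lysates (20 μg protein) were assayed by ELISA for AMPKα Thr172 phosphorylation as the activation read-out.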

[1] = Homo sapiens, HCT-116, 48 h, 100 μM

| GI50 (HCT116 cells; Homo sapiens, HCT-116, 48 h) [µM] | Molecule | inhibition at 100 µM (HCT116 cells; [1]) [%] | AMPK activation effect (%) 10 μM (AMPK) [%] | AMPK activation effect (%) 50 μM (AMPK) [%] | AC150 (AMPK) [µM] | inhibition at 25 µM (HCT116 cells; Homo sapiens, HCT-116, 48 h) [%] | AMPK activation effect (%) 5 μM (AMPK) [%] | Cell growth inhibition (%) at 100 μM (HCT116 cells; 100 μM, 48 hours) [%] | GI50 (HCT116 cells; 48 hours) [µM] |
| --- | --- | --- | --- | --- | --- | --- | --- | --- | --- |
| 18.5 | CC1CCCN(C(=N)NC(=N)NCc2ccc(Cl)cc2)C1.Cl (stereo not shown) [Example 66, N1-(3-methyl)piperidine-N5-(4-chloro)benzyl biguanide hydrochloride] | – | 204 | – | 6.2 | 67.4 | 101 | – | – |
| 3 | CC1CCCC(C)N1C(=N)NC(=N)Nc1ccc(F)c(C(F)(F)F)c1.Cl (stereo not shown) [Example 93, N1-(2,6-dimethyl)piperidine-N5-(4-fluoro, 3-trifluoromethyl)phenyl biguanide hydrochloride] | – | 422 | – | 2.0 | 100 | 190 | – | – |
| > 100 | COc1ccc(NC(=N)NC(=N)N2CC=CC2)cc1.Cl [Example 42, N1-1,2-dihydropyrrole-N5-(4-methoxyl)phenyl biguanide hydrochloride] | 14 | 157 | 210 | 14.7 | – | – | – | – |
| 42.5 | Cc1ccc(NC(=N)NC(=N)N2CC=CCC2)cc1.Cl [Example 48, N1-1,2,3,6-tetrahydropyridine-N5-(4-methyl)phenyl biguanide hydrochloride] | 97.6 | 178 | 691 | 4.9 | – | – | – | – |
| 26.9 | Cl.N=C(NCc1cccc(C(F)(F)F)c1)NC(=N)N1CC=CCC1 [Example 57, N1-1,2,3,6-tetrahydropyridine-N5-(3-trifluoromethyl)benzyl biguanide hydrochloride] | 97.8 | 279 | 579 | 2.7 | – | – | – | – |

Second part, the molecule before the results:

| Molecule | GI50 (HCT116 cells; Homo sapiens, HCT-116, 48 h) [µM] | inhibition at 100 µM (HCT116 cells; [1]) [%] | AMPK activation effect (%) 10 μM (AMPK) [%] | AMPK activation effect (%) 50 μM (AMPK) [%] | AC150 (AMPK) [µM] | inhibition at 25 µM (HCT116 cells; Homo sapiens, HCT-116, 48 h) [%] | AMPK activation effect (%) 5 μM (AMPK) [%] | Cell growth inhibition (%) at 100 μM (HCT116 cells; 100 μM, 48 hours) [%] | GI50 (HCT116 cells; 48 hours) [µM] |
| --- | --- | --- | --- | --- | --- | --- | --- | --- | --- |
| Cl.N=C(NC(=N)N1CC=CC1)Nc1cccc(C(F)(F)F)c1 [Example 6, N1-1,2-dihydropyrrole-N5-(3-trifluoromethyl)phenyl biguanide hydrochloride] | 12.9 | 99.6 | 124 | 136 | >50 | – | – | – | – |
| Cl.N=C(NC(=N)N1CC=CCC1)Nc1ccc(OC(F)(F)F)cc1 [Example 28, N1-1,2,3,6-tetrahydropyridine-N5-(4-trifluoromethoxy)phenyl biguanide hydrochloride] | 8.4 | 100 | 732 | – | 0.15 | – | – | – | – |
| CC1=CCN(C(=N)NC(=N)Nc2ccc(C(F)(F)F)cc2)C1.Cl [Example 16, N1-(3-methyl)-1,2-dihydropyrrole-N5-(4-trifluoromethyl)phenyl biguanide hydrochloride] | 10.8 | 99.3 | 398 | – | 1.7 | – | – | – | – |
| COc1ccc(NC(=N)NC(=N)N2CC=C(C)C2)cc1.Cl [Example 22, N1-(3-methyl)-1,2-dihydropyrrole-N5-(4-methoxyl)phenyl biguanide hydrochloride] | 18.6 | 37.1 | 116 | 209 | 24.5 | – | – | – | – |
| N1-1,2-dihydropyrrole-N5-(4-methyl)phenyl biguanide hydrochloride [Example 50] | – | – | 317 | 440 | 1.4 | – | – | 46.0 | 117 |
| Cl.N=C(NC(=N)N1CC=CC1)Nc1ccc(C(F)(F)F)c(F)c1 [Example 47, N1-1,2-dihydropyrrole-N5-(3-fluoro, 4-trifluoromethyl)phenyl biguanide hydrochloride] | 10.8 | 100 | 758 | – | 1.0 | – | – | – | – |

Source: patent US9884821B2, “N1-cyclic amine-N5-substituted biguanide derivatives, methods of preparing the same and pharmaceutical composition comprising the same” (IMMUNOMET THERAPEUTICS INC., priority 2013, dated 2018)
